What all share (type): cell-based, human
The subject of one assay is STAT5. In words: Western blot of STAT5 phosphorylation and expression. The conditions noted are these: MDA-MB-231. How it is done: (§1) Figure 6 (A) PMM-172 suppressed constitutive pSTAT3 (Tyr705) in a dose-dependent manner. (B) PMM-172 suppressed constitutive pSTAT3 (Tyr705) in a time-dependent manner. (C) MDA-MB-231 cells were treated with IL-6 (20 ng/mL) or vehicle for 30 min, with or without pretreatment with PMM-172 (2 μM) for 24 h. PMM-172 inhibited IL-6 induced phosphorylation of STAT3. (D) Stattic suppressed constitutive pSTAT3 (Tyr705) in a dose-dependent manner. (E) Stattic suppressed constitutive pSTAT3 (Tyr705) in a time-dependent manner. (F) Tyrosine phosphorylation of two STAT family proteins STAT1 and STAT5 were detected with specific antibodies. […] Data were shown as mean ± SD of three independent experiments. *P < 0.05, **P < 0.01. Cropped blots/gels were used in the figure and the gels had been run under the same experimental conditions; the full-length blots/gels are presented in Supplementary Figure S2.
(§2) Subsequently, we evaluated the phosphorylation level of other STAT family proteins including STAT1 and STAT5.
(§3) Cells were rinsed twice with cold PBS and then lysed with RIPA buffer containing a protease inhibitor mixture at 1:100 dilution on ice for 30 min. Insoluble components of cell lysates were removed by centrifugation (4 °C, 12000 rmp, 10 min), and protein concentrations were measured using a Pierce BCA protein assay kit. […]
Background: In western blotting, separated proteins are transferred to a membrane and probed.

Another assay deals with pSTAT3 in MCF-10A cells. As to the kind of experiment: Western blot of pSTAT3 in non-tumorigenic cells. The note with it: 24 h, increasing doses. How it is done:
Figure 7 MDA-MB-231 cells were treated with indicated concentrations of PMM-172 or Stattic for 24 h, the expression levels of STAT3 in cytoplasmic and nuclear extracts were examined and relative expression levels were analyzed by Image J software. β-actin and Lamin B1 served as markers of cytoplasmic and nuclear extractions, respectively. […] (C) MCF-10A cells were treated with the indicated concentrations of PMM-172 for 24 h. PMM-172 had no effect on the level of the pSTAT3 level in MCF-10A cells. […] Data were shown as mean ± SD from three independent experiments, **P < 0.01. Cropped blots/gels were used in the figure and the gels had been run under the same experimental conditions; the full-length blots/gels are presented in Supplementary Figure S3.
In the following work, we examined whether PMM-172 could affect the activity of STAT3 and viability in non-cancer cells. The non-tumorigenic MCF-10A epithelial cells were employed to be treated with increasing doses of PMM-172 to conduct this assay.
as §3

The subject of another assay is MDA-MB-231 cells. In words: Annexin V/PI double staining apoptosis assay (flow cytometry). The conditions noted are these: for percentage of cell apoptosis (early and late apoptotic cells): 24 h, MDA-MB-231, control 3.12%. How it is done:
(§4) To determine whether PMM-172 induced apoptosis, Annexin V/PI double staining assay was conducted. MDA-MB-231 cells were treated with various concentrations of PMM-172 for 24 h, and the percentage of apoptotic cells was markedly elevated in a dose-dependent manner. Likewise, MDA-MB-231 cells were treated with corresponding doses of Stattic. […] The percentages of cell apoptosis 3.12%, 8.12%, 16.81%, 62.74% corresponded to the concentration of PMM-172 0, 2, 4 and 8 μM, respectively, including both the early and the late apoptotic cells. Clearly, PMM-172 can cause cell apoptosis more effectively than Stattic. Moreover, an extend time-course apoptosis analysis of MDA-MB-231 cells treated with 4 μM PMM-172 was carry out. […] To further assess the pro-apoptotic effect of PMM-172, we evaluated the cleavage of poly (ADP-ribose) polymerase (PARP) and caspase 3 in MDA-MB-231 cells after 24 h treatment with PMM-172. In this case, the active form of PARP involved in DNA repair and programmed cell death is considered as the hallmark of apoptosis.
Figure 4 The effect of PMM-172 on the cell apoptosis of MDA-MB-231 cells. (A) MDA-MB-231 cells were treated with various concentrations of PMM-172 or Stattic for 24 h, or treated with 4 μM PMM-172 for different time. Apoptosis was analyzed by flow cytometry by using Annexin V/PI double staining. (B) The percentage of apoptotic cells in MDA-MB-231 cells treated with various concentrations of PMM-172 for 24 h. (C) The percentage of apoptotic cells in MDA-MB-231 cells treated with 4 μM PMM-172 for different time. (D) The percentage of apoptotic cells in MDA-MB-231 cells treated with various concentrations of Stattic for 24 h. (E) PARP and caspase 3 cleavage in MDA-MB-231 cells after treated with various concentrations of PMM-172 for 24 h were detected by using Western blot analysis. The relative expression level was analyzed by Image J software. […]
Approximately 10^5 cells/well were plated in a 24 well plate and allowed to adhere. […] The samples were then analyzed by a FACSCalibur flow cytometer (Becton Dickinson, San Jose, CA, USA).

Assay [1] concerns PARP and caspase 3 cleavage in MDA-MB-231 cells. In words: Western blot of PARP and caspase 3 cleavage. The note with it: MDA-MB-231, 24 h treatment. As for the experimental part: as §4, with “In this case, the active form of PARP involved in DNA repair and programmed cell death is considered as the hallmark of apoptosis.” left out
Figure 4 The effect of PMM-172 on the cell apoptosis of MDA-MB-231 cells. […] Apoptosis was analyzed by flow cytometry by using Annexin V/PI double staining. […] (E) PARP and caspase 3 cleavage in MDA-MB-231 cells after treated with various concentrations of PMM-172 for 24 h were detected by using Western blot analysis. The relative expression level was analyzed by Image J software. […]

The test system of assay [2] is pSTAT3 (Tyr705) in MDA-MB-231 cells. As to the kind of experiment: Western blot of constitutive STAT3 activation.
Description: It has been well recognized that the aberrant activation of STAT3 contributes to malignant transformation and tumorgenesis, and its activity is ultimately dependent upon phosphorylation of residue Y705. […] In this study, the ability of PMM-172 and Stattic inhibiting the constitutive STAT3 activation in MDA-MB-231 cells was investigated. […] We further measured STAT3 phosphorylation at Tyr705 in a time-course experiment.
as §1
Cells were rinsed twice with cold PBS and then lysed with RIPA buffer containing a protease inhibitor mixture at 1:100 dilution on ice for 30 min. Insoluble components of cell lysates were removed by centrifugation (4 °C, 12000 rmp, 10 min), and protein concentrations were measured using a Pierce BCA protein assay kit. Proteins were separated by sodium dodecyl sulfate-polyacrylamide gel electrophoresis (SDS-PAGE) and transferred from the gel onto polyvinylidene difluoride (PVDF) membranes. The membranes were blocked with 5% skim milk in TBST buffer for 1 h at room temperature, and then incubated with corresponding primary antibodies diluted in 5% milk-TBST solution at 4 °C with gentle shaking overnight. After washing five times (5 min each), corresponding HRP-conjugated secondary antibodies were incubated for 1 h at room temperature. Immunoreactive bands were visualized using an ECL detection kit (Invitrogen, USA) following the manufacturer’s instruction.

Another assay deals with STAT1. In words: Western blot of STAT1 phosphorylation and expression. The note with it: MDA-MB-231. How it is done:
as §1, §2, §3

Results on one compound are retold here after paper PMC5460289, “Identification of New Shikonin Derivatives as Antitumor Agents Targeting STAT3 SH2 Domain” (Scientific Reports, 2017).

Take `COc1cc(OC)cc(-c2nnc(SCC(=O)O[C@H](CC=C(C)C)C3=CC(=O)c4c(O)ccc(O)c4C3=O)o2)c1` [PMM-172, (R)-1-(5,8-dihydroxy-1,4-dioxo-1,4-dihydronaphthalen-2-yl)-4-methylpent-3-en-1-yl 2-((5-(3,5-dimethoxyphenyl)-1,3,4-oxadiazol-2-yl)thio)acetate]: the “phosphorylation and expression of STAT5” value in the assay with STAT5 was “inhibited neither the phosphorylation nor expression”. In the assay with pSTAT3 in MCF-10A cells, the “expression levels of total STAT3 in MCF-10A cells” value was “kept unchanged” and the “pSTAT3 level in MCF-10A cells” value was “had no effect”. Moreover, the “percentage of cell apoptosis (early and late apoptotic cells)” value in the assay on MDA-MB-231 cells (4 μM) came to 16.81%. For the same compound, the “percentage of cell apoptosis (early and late apoptotic cells)” value in the assay on MDA-MB-231 cells (8 μM) was found to be 62.74%. The induction of apoptosis entry in the assay on MDA-MB-231 cells (MDA-MB-231, Annexin V/PI) was “induced apparent apoptosis in MDA-MB-231 cells in dose- and time- dependent manners”. Besides, in assay [1], the “PARP and caspase 3 cleavage” value was “could induce PARP and caspase 3 cleavage”. Moreover, in assay [2], the STAT3 expression result is on record as “had no effect on STAT3 expression”; the “STAT3 phosphorylation at Tyr705, time-course” value is reported as “reduced with the longer treatment”; the “level of Y705-phosphorylated STAT3 (constitutive), dose series” value is “could reduce the level of Y705-phosphorylated STAT3 in MDA-MB-231 cells in a dose-dependent manner”. Further, the “phosphorylation and expression of STAT1” value with STAT1 was “inhibited neither the phosphorylation nor expression”.
